Data as given in patent US8975291B2, “Indoles” (GlaxoSmithKline LLC, priority 2010, dated 2015).

What follows are compounds tested against T1, EZH2 within the PRC2 complex (Homo sapiens, UniProt Q15910) (assay: EZH2 methyltransferase scintillation proximity assay (SPA) with PRC2 complex). Conditions: 3H-SAM methyl transfer to Histone H3 of HeLa mononucleosomes; read-out: EZH2 pIC50 (converted).
T1 construct: FLAG; made in house; host or cells: Sf9 cells
Assay type: biochemical
Procedure: Compounds contained herein were evaluated for their ability to inhibit the methyltransferase activity of EZH2 within the PRC2 complex. Human PRC2 complex was prepared by co-expressing each of the 5 member proteins (FLAG-EZH2, EED, SUZ12, RbAp48, AEBP2) in Sf9 cells followed by co-purification. Enzyme activity was measured in a scintillation proximity assay (SPA) where a tritiated methyl group is transferred from 3H-SAM to a lysine residue on Histone H3 of a mononucleosome, purified from HeLa cells. Mononucleosomes were captured on SPA beads and the resulting signal is read on a ViewLux plate reader.
Part A. Compound Preparation
• 1. Prepare 10 mM stock of compounds from solid in 100% DMSO. • 2. Set up an 11-point serial dilution (1:3 dilution, top concentration 10 mM) in 100% DMSO for each test compound in a 384 well plate leaving columns 6 and 18 for DMSO controls. • 3. Dispense […] of compound from the dilution plate into reaction plates (Grenier Bio-One, 384-well, Cat #784075). Part B. Reagent Preparation Prepare the following solutions: • 1. 50 mM Tris-HCl, pH 8: Per 1 L of base buffer, combine 1 M Tris-HCl, pH 8 (50 mL) and distilled water (950 mL). • 2. […] 2× Enzyme Solution: Per 10 mL of 2× Enzyme Solution, combine 1× Assay Buffer and PRC2 complex to provide a final enzyme concentration of 10 nM. • 4. SPA Bead Suspension: Per 1 mL of SPA Bead Suspension, combine PS-PEI coated LEADSeeker beads (40 mg) and ddH2O (1 mL) to provide a final concentration of 40 mg/mL. • 5. 2× Substrate Solution: Per 10 mL of 2× Substrate Solution, combine 1× Assay Buffer (9728.55 uL), 800 ug/mL mononucleosomes (125 uL), 1 mM cold SAM (4 uL), and 7.02 uM 3H-SAM (142.45 uL; 0.55 mCi/mL) to provide a final concentration of 5 ug/mL nucleosomes, 0.2 uM cold SAM, and 0.05 uM 3H-SAM. • 6. 2.67× Quench/Bead Mixture: Per 10 mL of 2.67× Quench/Bead Mixture, combine ddH2O (9358 uL), 10 mM cold SAM (267 uL), 40 mg/mL Bead Suspension (375 uL) to provide a final concentration of 100 uM cold SAM and 0.5 mg/mL SPA beads. Part C. Assay Reaction in 384-well Grenier Bio-One Plates Compound Addition • 1. Dispense […] of 100× Compound to test wells (as noted above). • 2. Dispense […] of 100% DMSO to columns 6 & 18 for high and low controls, respectively. Assay • 1. […] Dispense 5 uL/well of 2× Enzyme Solution to columns 1-17, 19-24. • 3. Spin assay plates for ˜1 minute at 500 rpm. • 4. Stack the assay plates, covering the top plate. • 5. Incubate the compound/DMSO with the enzyme for 30 minutes at room temperature. • 6. Dispense 5 uL/well of 2× Substrate Solution to columns 1-24. • 7. Spin assay plates for ˜1 minute at 500 rpm. • 8. Stack the assay plates, covering the top plate. • 9. Incubate the assay plates at room temperature for 1 hour. Quench/Bead Addition • 1. Dispense 5 uL/well of the 3× Quench/Bead Mixture to columns 1-24. • 2. Seal the top of each assay plate with adhesive TopSeal. • 3. Spin assay plates for ˜1 minute at 500 rpm. • 4. Equilibrate the plates for >20 min. Read Plates • 1. Read the assay plates on the Viewlux Plate Reader utilizing the 613 nm emission filter with a 300 s read time. Reagent addition can be done manually or with automated liquid handler. • The final DMSO concentration in this assay is 1%. • The positive control is in column 6; negative control is in column 18. • Final starting concentration of compounds is 100 μM. Part D. Data Analysis
Percent inhibition was calculated relative to the DMSO control for each compound concentration and the resulting values were fit using standard IC50 fitting parameters within the ABASE data fitting software package.

T1 sequence (Q15910 whole entry): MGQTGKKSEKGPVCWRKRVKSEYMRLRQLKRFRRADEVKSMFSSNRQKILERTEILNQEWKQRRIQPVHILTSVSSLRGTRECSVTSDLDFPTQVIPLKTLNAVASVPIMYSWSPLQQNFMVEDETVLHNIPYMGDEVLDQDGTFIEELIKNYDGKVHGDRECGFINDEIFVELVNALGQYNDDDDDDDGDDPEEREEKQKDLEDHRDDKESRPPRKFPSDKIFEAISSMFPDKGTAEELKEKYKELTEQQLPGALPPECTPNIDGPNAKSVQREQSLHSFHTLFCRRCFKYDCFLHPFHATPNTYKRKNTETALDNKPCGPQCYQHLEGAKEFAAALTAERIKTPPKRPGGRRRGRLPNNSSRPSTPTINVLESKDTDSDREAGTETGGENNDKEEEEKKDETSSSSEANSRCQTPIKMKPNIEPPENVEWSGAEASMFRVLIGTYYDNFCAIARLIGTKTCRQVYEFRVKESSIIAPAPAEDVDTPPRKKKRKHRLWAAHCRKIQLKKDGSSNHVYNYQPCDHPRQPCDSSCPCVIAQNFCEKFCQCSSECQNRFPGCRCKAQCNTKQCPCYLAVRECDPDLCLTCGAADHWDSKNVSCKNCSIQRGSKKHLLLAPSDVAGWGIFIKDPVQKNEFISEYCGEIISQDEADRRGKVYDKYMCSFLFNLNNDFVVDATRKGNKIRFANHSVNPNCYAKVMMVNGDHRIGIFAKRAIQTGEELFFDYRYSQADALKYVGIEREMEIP
T1 sequence (O75530 whole entry partner): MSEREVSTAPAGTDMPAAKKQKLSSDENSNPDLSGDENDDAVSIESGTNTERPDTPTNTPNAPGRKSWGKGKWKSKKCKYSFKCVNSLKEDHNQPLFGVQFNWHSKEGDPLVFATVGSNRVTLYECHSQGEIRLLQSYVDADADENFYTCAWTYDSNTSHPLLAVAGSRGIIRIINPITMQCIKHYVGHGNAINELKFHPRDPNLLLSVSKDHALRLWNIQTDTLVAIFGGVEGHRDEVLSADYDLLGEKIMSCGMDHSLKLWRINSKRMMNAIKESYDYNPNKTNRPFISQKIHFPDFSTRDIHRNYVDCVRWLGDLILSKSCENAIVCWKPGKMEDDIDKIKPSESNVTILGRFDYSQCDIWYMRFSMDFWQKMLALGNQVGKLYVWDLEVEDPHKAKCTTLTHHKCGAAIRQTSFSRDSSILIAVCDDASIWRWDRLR
T1 sequence (Q15022 whole entry partner): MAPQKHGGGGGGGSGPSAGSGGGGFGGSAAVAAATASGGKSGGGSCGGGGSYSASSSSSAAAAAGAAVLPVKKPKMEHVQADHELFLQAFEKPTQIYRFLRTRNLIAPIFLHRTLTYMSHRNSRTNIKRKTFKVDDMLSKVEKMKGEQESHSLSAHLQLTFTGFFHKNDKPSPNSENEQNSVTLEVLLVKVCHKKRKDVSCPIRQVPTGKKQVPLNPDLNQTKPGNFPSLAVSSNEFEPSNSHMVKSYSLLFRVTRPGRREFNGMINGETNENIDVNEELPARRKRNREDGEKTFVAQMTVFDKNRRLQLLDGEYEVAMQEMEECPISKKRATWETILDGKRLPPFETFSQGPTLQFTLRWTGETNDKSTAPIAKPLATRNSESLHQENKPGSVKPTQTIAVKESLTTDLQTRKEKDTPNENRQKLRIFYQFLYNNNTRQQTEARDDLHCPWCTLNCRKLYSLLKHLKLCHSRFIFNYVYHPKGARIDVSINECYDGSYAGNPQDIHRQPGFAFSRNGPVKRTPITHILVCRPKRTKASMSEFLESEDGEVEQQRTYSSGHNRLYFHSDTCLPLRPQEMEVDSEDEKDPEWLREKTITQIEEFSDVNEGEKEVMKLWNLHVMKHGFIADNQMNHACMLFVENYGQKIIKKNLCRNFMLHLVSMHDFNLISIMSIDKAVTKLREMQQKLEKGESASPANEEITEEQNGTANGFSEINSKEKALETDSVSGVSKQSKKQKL
T1 sequence (Q09028 whole entry partner): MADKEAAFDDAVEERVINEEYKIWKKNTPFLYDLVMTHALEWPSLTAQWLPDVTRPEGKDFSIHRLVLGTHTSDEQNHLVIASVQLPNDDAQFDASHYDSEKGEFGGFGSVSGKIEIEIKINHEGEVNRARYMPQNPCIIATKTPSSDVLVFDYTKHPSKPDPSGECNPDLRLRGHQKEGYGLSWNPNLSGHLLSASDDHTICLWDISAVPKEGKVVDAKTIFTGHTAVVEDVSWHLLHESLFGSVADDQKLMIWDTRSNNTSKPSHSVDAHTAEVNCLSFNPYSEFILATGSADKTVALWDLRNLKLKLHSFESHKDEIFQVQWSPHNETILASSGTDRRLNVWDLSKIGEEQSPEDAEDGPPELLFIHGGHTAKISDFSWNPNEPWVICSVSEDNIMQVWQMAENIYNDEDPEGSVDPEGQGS
T1 sequence (Q6ZN18 whole entry partner): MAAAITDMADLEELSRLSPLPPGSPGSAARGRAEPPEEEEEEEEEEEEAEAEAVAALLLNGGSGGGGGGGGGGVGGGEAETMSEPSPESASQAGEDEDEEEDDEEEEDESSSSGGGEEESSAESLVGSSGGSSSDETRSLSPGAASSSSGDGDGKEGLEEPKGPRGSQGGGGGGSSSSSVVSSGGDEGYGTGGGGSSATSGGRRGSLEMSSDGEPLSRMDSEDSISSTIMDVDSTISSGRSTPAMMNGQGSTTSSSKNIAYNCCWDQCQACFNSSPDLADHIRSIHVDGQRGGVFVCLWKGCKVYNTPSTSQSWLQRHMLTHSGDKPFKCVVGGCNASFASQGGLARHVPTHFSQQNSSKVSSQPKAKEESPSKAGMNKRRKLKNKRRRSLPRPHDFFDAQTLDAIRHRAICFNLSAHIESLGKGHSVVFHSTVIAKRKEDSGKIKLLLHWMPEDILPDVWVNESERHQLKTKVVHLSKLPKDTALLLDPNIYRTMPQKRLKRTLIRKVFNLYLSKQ

| SMILES | IC50 [µM] |
| --- | --- |
| Cc1cc(C)c(CNC(=O)c2cc(C3COC3)cc3c2c(C)cn3C(C)C)c(=O)[nH]1 [Example 360, N-[(4,6-dimethyl-2-oxo-1,2-dihydro-3-pyridinyl)methyl]-3-methyl-1-(1-methylethyl)-6-(3-oxetanyl)-1H-indole-4-carboxamide] | 0.288 |
| Cc1cc(C)c(CNC(=O)c2cc(Nc3ccc(N4CCN(C)CC4)nc3)cc3c2c(C)cn3C(C)C)c(=O)[nH]1 [Example 361, N-[(4,6-dimethyl-2-oxo-1,2-dihydro-3-pyridinyl)methyl]-3-methyl-1-(1-methylethyl)-6-{[6-(4-methyl-1-piperazinyl)-3-pyridinyl]amino)-1H-indole-4-carboxamide] | 0.055 |
| Cc1cc(C)c(CNC(=O)c2cc(NC(=O)N3CCN(C)CC3)cc3c2c(C)cn3C(C)C)c(=O)[nH]1 [Example 362, N-[(4,6-dimethyl-2-oxo-1,2-dihydro-3-pyridinyl)methyl]-3-methyl-1-(1-methylethyl)-6-{[(4-methyl-1-piperazinyl)carbonyl]amino}-1H-indole-4-carboxamide] | 0.129 |

The remaining lines, values ahead:

| IC50 [µM] | SMILES |
| --- | --- |
| 0.0363 | Cc1cc(C)c(CNC(=O)c2cc(-c3ccc(CN4C[C@@H](C)O[C@@H](C)C4)nc3)cc3c2c(C)cn3C(C)C)c(=O)[nH]1 [Example 348, 6-(6-{[(2R,6S)-2,6-dimethyl-4-morpholinyl]methyl}-3-pyridinyl)-N-[(4,6-dimethyl-2-oxo-1,2-dihydro-3-pyridinyl)methyl]-3-methyl-1-(1-methylethyl)-1H-indole-4-carboxamide] |
| 0.0251 | Cc1cc(C)c(CNC(=O)c2cc(-c3ccc(CN4CCN(C)CC4)nc3)cc3c2c(C)cn3C(C)C)c(=O)[nH]1 [Example 349, N-[(4,6-dimethyl-2-oxo-1,2-dihydro-3-pyridinyl)methyl]-3-methyl-1-(1-methylethyl)-6-{6-[(4-methyl-1-piperazinyl)methyl]-3-pyridinyl}-1H-indole-4-carboxamide] |
| 0.0229 | Cc1cc(C)c(CNC(=O)c2cc(-c3ccc(CN4CCOCC4)nc3)cc3c2c(C)cn3C(C)C)c(=O)[nH]1 [Example 350, N-[(4,6-dimethyl-2-oxo-1,2-dihydro-3-pyridinyl)methyl]-3-methyl-1-(1-methylethyl)-6-[6-(4-morpholinylmethyl)-3-pyridinyl]-1H-indole-4-carboxamide] |
| 0.468 | Cc1cc(C)c(CNC(=O)c2cc(B(O)O)cc3c2c(C)cn3C(C)C)c(=O)[nH]1 [Example 358, [4-({[(4,6-dimethyl-2-oxo-1,2-dihydro-3-pyridinyl)methyl]amino)carbonyl)-3-methyl-1-(1-methylethyl)-1H-indol-6-yl]boronic acid] |
| 0.0589 | Cc1cc(C)c(CNC(=O)c2cc(-c3ccc(CO)nc3)cc3c2c(C)cn3C(C)C)c(=O)[nH]1 [Example 359, N-[(4,6-dimethyl-2-oxo-1,2-dihydro-3-pyridinyl)methyl]-6-[6-(hydroxymethyl)-3-pyridinyl]-3-methyl-1-(1-methylethyl)-1H-indole-4-carboxamide] |

Same assay, conditions: EZH2 inhibition, foregoing or analogous assay; unit inferred; read-out: IC50

| IC50 [µM] | SMILES |
| --- | --- |
| 0.003 | Cc1cc(C)c(CNC(=O)c2cc(-c3ccc(N4CCNCC4)nc3)cc3c2c(C)cn3C2CCCC2)c(=O)[nH]1 [Ex 275, 1-cyclopentyl-N-((4,6-dimethyl-2-oxo-1,2-dihydropyridin-3-yl)methyl)-3-methyl-6-(6-(piperazin-1-yl)pyridin-3-yl)-1H-indole-4-carboxamide] |
| 0.013 | Cc1cc(C)c(CNC(=O)c2cc(-c3ccc(N4CCNC(C)(C)C4)nc3)cc3c2c(C)cn3C(C)C)c(=O)[nH]1 [Ex 339, N-[(4,6-dimethyl-2-oxo-1,2-dihydro-3-pyridinyl)methyl]-6-[6-(3,3-dimethyl-1-piperazinyl)-3-pyridinyl]-3-methyl-1-(1-methylethyl)-1H-indole-4-carboxamide] |
